# Patent publication US6683070B2, “Aqueous suspension with good redispersibility” (Senju Pharmaceutical Co., Ltd., priority 1997, dated 2004)
# Columns and labels:
# [1] = Redispersibility test: redispersion time and visual condition after standing at 25° C. for 4 days; type: physicochemical
# Protocol: (§1) Solutions containing a suspending agent in concentrations ranging from 0.000001 to 0.5 w/v % were first prepared. A test drug was added to the solutions to prepare aqueous suspensions. The surface tension of each aqueous suspension thus prepared was measured with the Du Noüy tension meter K122 (Krüss). The suspensions were then filled into 5 ml colorless polypropylene bottles and allowed to stand at 25° C. for 4 days. Each bottle was caused to spin (60 rpm) on the variable mix rotor VMR-5 (60 rpm, manufactured by Iuchi) and the time required for redispersion was measured. In addition, the condition of the redispersed particles was visually examined. As the suspending agent, hydroxypropylmethyl cellulose [Metolose 60SH (TC-5E); manufactured by Shin-Etsu Chemical Co., Ltd.; hereinafter abbreviated as HPMC], methylcellulose (Metolose SM-25; manufactured by Shin-Etsu Chemical Co., Ltd.; abbreviated as MC), or polyvinylpyrrolidone (K30; manufactured by BASF; abbreviated as PVP) was used. As the test drug, fluorometholone 0.05 w/v % or 0.1 w/v % or indomethacin 0.2 w/v % or 1.0 w/v % was used.
# [2] = Surface tension of aqueous suspension (Du Noüy tension meter K122); type: physicochemical
# Protocol: as §1
# [3] = fluorometholone 0.05 w/v % suspension, 0.0001 to 0.002 w/v % HPMC
# [4] = fluorometholone 0.1 w/v % suspension, 0.000005 to 0.0001 w/v % HPMC
# [5] = fluorometholone 0.1 w/v % suspension, 0.0001 to 0.01 w/v % HPMC
# [6] = fluorometholone 0.1 w/v % suspension, 0.0003 to 0.002 w/v % PVP
# [7] = fluorometholone 0.1 w/v % suspension, MC 0.0001 w/v % or less
# [8] = fluorometholone 0.05 w/v % suspension
# [9] = fluorometholone 0.1 w/v % suspension
# [10] = fluorometholone 0.1 w/v % suspension, MC
# [11] = fluorometholone 0.1 w/v % suspension, PVP
# [12] = indomethacin 0.2 w/v % suspension, HPMC below 0.0001 w/v %
# [13] = indomethacin 1.0 w/v % suspension, HPMC less than 0.0005 w/v %
# [14] = indomethacin 0.2 w/v % suspension
# [15] = indomethacin 1.0 w/v % suspension
smiles,measurement,setting,value
CC(=O)[C@@]1(O)CC[C@H]2[C@@H]3C[C@H](C)C4=CC(=O)C=C[C@]4(C)[C@@]3(F)[C@@H](O)C[C@@]21C [fluorometholone],condition of the dispersion,[1]; [3],satisfactory
same,time required for redispersion,[1]; [3],about 6 seconds
same,condition of the redispersed particles,[1]; [4],"the dispersed particles aggregated and floated, failing to give a uniform suspension"
same,time required for redispersion,[1]; [4],2 s
same,condition of the redispersed particles,[1]; [5],a uniform suspension was obtained without aggregation of suspended particles
same,redispersion time,[1]; [5],less than 4 seconds
same,condition of the redispersed particles,"[1]; fluorometholone 0.1 w/v % suspension, 0.0001 to 0.01 w/v % MC",redispersion taking place rapidly without aggregation of dispersed particles
same,condition of the dispersion,[1]; [6],satisfactory
same,time necessary for redispersion,[1]; [6],about 6 seconds
same,redispersion time,"[1]; fluorometholone 0.1 w/v % suspension, HPMC over 0.01 w/v %",exceeded 5 seconds
same,condition of the redispersed particles,[1]; [7],"the dispersed particles aggregated and floated, failing to give a uniform suspension"
same,redispersion time,[1]; [7],≤ 2 s
same,redispersion time,"[1]; fluorometholone 0.1 w/v % suspension, MC over 0.01 w/v %",~20 s
same,redispersion time,"[1]; fluorometholone 0.1 w/v % suspension, PVP in excess of 0.002 w/v %",≥ 18 s
same,surface tension,"[2]; fluorometholone 0.05 w/v % suspension, 0.0001 w/v % HPMC",65.1 mN/m
same,surface tension,"[2]; fluorometholone 0.05 w/v % suspension, 0.001 w/v % PVP",69.5 mN/m
same,surface tension,"[2]; fluorometholone 0.05 w/v % suspension, 0.002 w/v % HPMC",50.5 mN/m
same,HPMC concentration at which the decrease in surface tension almost ceased,[2]; [8],0.002 w/v %
same,HPMC concentration at which the surface tension began to decline,[2]; [8],0.0001 w/v %
same,PVP concentration at which the decrease in surface tension almost ceased,"[2]; fluorometholone 0.05 w/v % suspension, PVP",0.001 w/v %
same,surface tension,"[2]; fluorometholone 0.05 w/v % suspension, PVP at the concentration where the decline began (printed 0.0902 w/v % PVC)",72.3 mN/m
same,surface tension,"[2]; fluorometholone 0.1 w/v % suspension, 0.002 w/v % PVP",69.5 mN/m
same,surface tension,"[2]; fluorometholone 0.1 w/v % suspension, 0.01 w/v % MC",54.5 mN/m
same,HPMC concentration at which the decrease in surface tension almost ceased,[2]; [9],0.01 w/v
same,HPMC concentration at which the surface tension began to decline,[2]; [9],0.0001 w/v %
same,MC concentration at which the decrease in surface tension almost ceased,[2]; [10],0.01 w/v %
same,MC concentration at which the surface tension began to decline,[2]; [10],0.0001 w/v %
same,surface tension,"[2]; fluorometholone 0.1 w/v % suspension, MC 0.0001 w/v % and below",~72.5 mN/m
same,PVP concentration at which the decrease in surface tension almost ceased,[2]; [11],0.002 w/v %
same,PVP concentration at which the surface tension began to decline,[2]; [11],0.0003 w/v %
same,surface tension,"[2]; fluorometholone 0.1 w/v % suspension, PVP less than 0.0003 w/v %",~72.5 mN/m
COc1ccc2c(c1)c(CC(=O)O)c(C)n2C(=O)c1ccc(Cl)cc1 [indomethacin],condition of the redispersed particles,"[1]; indomethacin 0.2 w/v % suspension, 0.0001 to 0.01 w/v % HPMC",the drug being rapidly redispersed without aggregation
same,condition of the redispersed particles,[1]; [12],"the dispersed particles aggregated and floated, failing to give a uniform suspension"
same,redispersion time,[1]; [12],≤ 7 s
same,redispersion time,"[1]; indomethacin 0.2 w/v % suspension, HPMC over 0.01 w/v %",exceeding 12 seconds
same,condition of the redispersed particles,"[1]; indomethacin 1.0 w/v % suspension, 0.0005 to 0.005 w/v % HPMC",the drug particles being rapidly redispersed without aggregation
same,redispersion time,"[1]; indomethacin 1.0 w/v % suspension, HPMC exceeded 0.005 w/v %",more than 20 seconds
same,condition of the redispersed particles,[1]; [13],"the dispersed particles aggregated and floated, failing to give a uniform suspension"
same,redispersion time,[1]; [13],not more than 7 seconds
same,surface tension,"[2]; indomethacin 0.2 w/v % suspension, 0.01 w/v % HPMC",48 mN/m
same,HPMC concentration at which the decrease in surface tension almost ceased,[2]; [14],0.01 w/v %
same,HPMC concentration at which the surface tension began to decline,[2]; [14],0.0001 w/v %
same,surface tension,"[2]; indomethacin 0.2 w/v % suspension, HPMC less than 0.0001 w/v %",~72 mN/m
same,surface tension,"[2]; indomethacin 1.0 w/v % suspension, 0.005 w/v % HPMC",49.7 mN/m
same,HPMC concentration at which the decrease in surface tension almost ceased,[2]; [15],0.005 w/v %
same,HPMC concentration at which the surface tension began to decline,[2]; [15],0.0005 w/v %
same,surface tension,"[2]; indomethacin 1.0 w/v % suspension, HPMC below 0.0005 w/v %",~72.73 mN/m
